The source of these data is patent publication US5136076A, “Process for the preparation of amino acid-derived enatiomeric compounds” (Societe Civile Bioprojet, priority 1987, dated 1992).

For test [1] the following is noted: cited from earlier work.
For test [2], the system named is angiotensin conversion enzyme (ACE). The note with it: cited from earlier work.
Test [3] has as its system enkephalinase. The test is described as follows: Enkephalinase inhibition in vivo in mouse striatum (Table 1 (b)). The note with it: 30 mn after i.v. administration. From the text:
(§1) Dosage of `enkephalinase` activity and angiotensin convertase (ACE) activity with determination of the effect of inhibitors both in vitro and on mouses in vivo: inhibition of the same enzymes and protection of natriuretic auricular factor.
(§2) ENKEPHALINASE AND ACE INHIBITING ACTIVITIES IN IN VITRO AND IN VIVO STRIATUM
(b)Activity measured in mouse striatum 30 mn after i.v. administration
according to LlorensCortes et al., Eur. J. Pharmacol., 1985, 119, 183.

In test [4] the target is T1, ACE (angiotensin convertase) (Mus musculus, UniProt P09470).
T1 construct: Activities measured on mouse striatum membranes in vitro or 30; from tissue; host or cells: mouse striatum (membranes)
T1 sequence (P09470 35-1312): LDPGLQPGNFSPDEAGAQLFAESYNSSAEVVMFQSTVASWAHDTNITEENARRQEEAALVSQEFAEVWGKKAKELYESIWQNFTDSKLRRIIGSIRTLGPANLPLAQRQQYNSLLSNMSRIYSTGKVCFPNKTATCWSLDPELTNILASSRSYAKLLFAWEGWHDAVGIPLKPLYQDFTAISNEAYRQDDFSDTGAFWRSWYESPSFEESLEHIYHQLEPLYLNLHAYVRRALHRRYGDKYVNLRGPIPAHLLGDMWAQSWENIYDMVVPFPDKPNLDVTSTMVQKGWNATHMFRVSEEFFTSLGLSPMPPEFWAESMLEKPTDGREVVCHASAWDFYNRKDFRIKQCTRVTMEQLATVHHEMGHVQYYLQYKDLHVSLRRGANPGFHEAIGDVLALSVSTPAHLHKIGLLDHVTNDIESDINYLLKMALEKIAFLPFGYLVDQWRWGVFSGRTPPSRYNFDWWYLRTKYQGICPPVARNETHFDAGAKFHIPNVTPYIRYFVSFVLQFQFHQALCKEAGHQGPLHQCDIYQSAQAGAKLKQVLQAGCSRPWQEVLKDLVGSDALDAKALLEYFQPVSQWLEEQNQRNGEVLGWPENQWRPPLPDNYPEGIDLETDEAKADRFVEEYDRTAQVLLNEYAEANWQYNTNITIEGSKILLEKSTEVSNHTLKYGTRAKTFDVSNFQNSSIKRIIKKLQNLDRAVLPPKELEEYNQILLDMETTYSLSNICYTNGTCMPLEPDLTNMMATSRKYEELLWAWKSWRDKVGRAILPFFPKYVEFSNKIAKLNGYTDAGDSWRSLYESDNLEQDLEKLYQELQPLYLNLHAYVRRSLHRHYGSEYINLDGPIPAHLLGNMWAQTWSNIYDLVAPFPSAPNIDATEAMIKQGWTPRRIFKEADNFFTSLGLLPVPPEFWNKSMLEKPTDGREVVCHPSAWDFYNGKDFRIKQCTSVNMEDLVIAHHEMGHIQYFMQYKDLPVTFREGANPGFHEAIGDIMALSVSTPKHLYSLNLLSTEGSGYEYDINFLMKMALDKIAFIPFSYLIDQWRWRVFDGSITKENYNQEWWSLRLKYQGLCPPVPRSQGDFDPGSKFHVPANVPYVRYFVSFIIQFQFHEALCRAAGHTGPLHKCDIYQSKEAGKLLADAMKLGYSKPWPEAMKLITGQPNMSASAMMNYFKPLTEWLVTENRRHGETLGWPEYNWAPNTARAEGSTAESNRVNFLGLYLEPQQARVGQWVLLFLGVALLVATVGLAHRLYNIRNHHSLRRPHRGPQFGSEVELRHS
Description: ACE inhibition in vitro on mouse striatum membranes (Table 1 (c)). The test is classed as biochemical.
Description: as §1, §2
(§3) (c) and (d)Activities measured on mouse striatum membranes in vitro or 30
(§4) mn after i.v. administration according to Yang and Neff, J. Neurochem, […]

In test [5] the target is T1, ACE (angiotensin convertase). Description: ACE inhibition in vivo, mouse striatum (Table 1 (d)). The note with it: mouse, iv, 0.5 h, mouse striatum, 30 mn after i.v. administration; read-out: ACE In vivo(d) (DE50, mg/kg).
Description: as §1, §2, §3, §4

The target in test [6] is T2, enkephalinase (Mus musculus, UniProt Q61391).
T2 construct: Activity measured on striatum membranes according to Llorens et al., J; from tissue; host or cells: striatum membranes
T2 sequence (Q61391 1-750): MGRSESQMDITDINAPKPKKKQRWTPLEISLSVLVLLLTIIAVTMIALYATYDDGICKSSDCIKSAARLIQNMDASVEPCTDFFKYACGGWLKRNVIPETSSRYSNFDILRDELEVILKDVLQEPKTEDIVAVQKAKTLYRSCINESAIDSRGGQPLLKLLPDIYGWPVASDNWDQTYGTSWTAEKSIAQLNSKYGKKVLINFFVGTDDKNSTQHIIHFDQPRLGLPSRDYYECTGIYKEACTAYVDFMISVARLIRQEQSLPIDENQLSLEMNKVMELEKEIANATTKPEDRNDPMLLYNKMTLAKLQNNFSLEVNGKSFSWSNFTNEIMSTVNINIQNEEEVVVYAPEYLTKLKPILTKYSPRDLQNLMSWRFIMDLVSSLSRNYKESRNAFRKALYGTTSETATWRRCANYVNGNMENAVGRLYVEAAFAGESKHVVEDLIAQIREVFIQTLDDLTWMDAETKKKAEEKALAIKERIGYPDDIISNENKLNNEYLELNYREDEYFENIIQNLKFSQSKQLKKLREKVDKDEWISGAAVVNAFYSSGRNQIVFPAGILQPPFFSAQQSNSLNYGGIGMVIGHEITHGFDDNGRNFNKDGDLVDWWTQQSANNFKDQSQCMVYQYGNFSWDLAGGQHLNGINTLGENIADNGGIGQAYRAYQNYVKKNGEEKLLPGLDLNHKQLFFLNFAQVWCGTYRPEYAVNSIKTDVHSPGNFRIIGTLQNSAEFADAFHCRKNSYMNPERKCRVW
Description: Enkephalinase inhibition in vitro on striatum membranes (Table 1 (a)). The test is classed as biochemical.
Description: as §1, §2
(a)Activity measured on striatum membranes according to Llorens et al., J

As for `CC(=O)SCC(Cc1ccccc1)C(=O)NCC(=O)OCc1ccccc1` (racemic) [Acetorphan, (R,S) N-/2-acetylthiomethyl-1-oxo-3-phenyl propyl/-glycine benzyl ester], the dose active intraveinously entry in test [1] (i.v.) is “around 1 mg/kg”.

Regarding `O=C(O)CNC(=O)C(CS)Cc1ccccc1` (racemic) [thiorphan], in test [2], the “inhibition of angiotensin conversion enzyme” value is given as “less powerful inhibitor of angiotensin conversion enzyme”. The cardiovascular activity result in test [1] (at a higher dose) is given as “at a higher dose, a cardiovascular activity”. Moreover, in test [1] (systemically, relative to Acetorphan i.v. (around 1 mg/kg)), the “active dose systemically, times higher than Acetorphan” value is “about 50 times”. For the same compound, the analgesic properties entry in test [1] (used intraveinously or intracerebroventricularly) is “analgesic properties”.

In general, IC50 refers to the concentration at which inhibition is half-maximal. With `COC(=O)[C@H](C)NC(=O)[C@H](CSC(C)=O)Cc1ccccc1` [(5), (R) N-/2-acetylthiomethyl-1-oxo-3-phenyl propyl/-(S)-alanine methyl ester], the “Enkephalinase In vivo(b) (DE50, mg/kg)” value in the test on enkephalinase [3] is given as 0.9 mg/kg. The IC50 in test [4] was determined as 2000 nM; on enkephalinase [6], 3 nM. Also, in test [5], the ED50 is more than 20 mg/kg.

For `COC(=O)[C@H](C)NC(=O)[C@@H](CSC(C)=O)Cc1ccccc1` [(6), (S) N-/2-acetylthiomethyl-1-oxo-3-phenylpropyl/-(S)-alanine methyl ester], the “Enkephalinase In vivo(b) (DE50, mg/kg)” value with enkephalinase [3] is on record as 0.3 mg/kg. The IC50 in test [4] came out at 12 nM; against enkephalinase [6], 1.2 nM. Also, in test [5], the ED50 was 4 mg/kg.

Consider `O=C(O)CNC(=O)[C@H](CS)Cc1ccccc1` [(R) isomer], for which the analgesic activity entry in test [1] (intracerebral, separate enantiomers of thiorphan) was “principally to the (R) isomer”.

Turning to `O=C(O)CNC(=O)[C@@H](CS)Cc1ccccc1` [(S) isomer], in test [2] (separate enantiomers of thiorphan), the “ACE's inhibiting activity” value was “almost exclusively attributable to the (S) isomer”.
